The values below come from ChEMBL document CHEMBL5653619, “A potent, selective and cell-active allosteric inhibitor of protein arginine methyltransferase 3 (PRMT3)” (Angew Chem Int Ed Engl, 2015).

Bounds are passed on as bounds.

Series [1] relates to HEK293. The series can be described thus: Cytotoxicity against HEK293 cells assessed as reduction in cell viability incubated for 24 hrs by alamar blue assay. It is filed as toxicity, cell-based. Conditions: human, hek293, 24 h. For orientation: Resazurin is reduced to fluorescent resorufin, in cell work by metabolically active cells.
Series [2] deals with LNCaP. Nature of the series: Cytotoxicity against human LNCaP cells assessed as reduction in cell viability incubated for 24 hrs by alamar blue assay. It is filed as toxicity, cell-based.
Series [3] concerns U2OS. Nature of the series: Cytotoxicity against human U2OS cells assessed as reduction in cell viability incubated for 24 hrs by alamar blue assay. It is filed as toxicity, cell-based.
The subject of series [4] is HFF. The series can be described thus: Cytotoxicity against HFF cells assessed as reduction in cell viability incubated for 24 hrs by alamar blue assay. It is filed as toxicity, cell-based. Conditions: human.
The subject of series [5] is MCF7. Nature of the series: Cytotoxicity against human MCF7 cells assessed as reduction in cell viability incubated for 24 hrs by alamar blue assay. The series is classed as toxicity, cell-based. Particulars: mcf7, 24 h.
In series [6] the test system is MDA-MB-231. Nature of the series: Cytotoxicity against human MDA-MB-231 cells assessed as reduction in cell viability incubated for 24 hrs by alamar blue assay. It is filed as toxicity, cell-based. Particulars: mda-mb-231, 24 h.
The test system of series [7] is HEK293. Nature of the series: Cytotoxicity against HEK293 cells assessed as reduction in cell viability at 50 to 100 uM incubated for 72 hrs by alamar blue assay. The series is classed as toxicity, cell-based. Particulars: human, hek293, 72 h, dose 50-100 µM.
For series [8], the system named is LNCaP. The series can be described thus: Cytotoxicity against human LNCaP cells assessed as reduction in cell viability at 50 to 100 uM incubated for 72 hrs by alamar blue assay. Conditions: dose 50-100 µM. The series is classed as toxicity, cell-based.
The test system of series [9] is U2OS. Nature of the series: Cytotoxicity against human U2OS cells assessed as reduction in cell viability at 50 to 100 uM incubated for 72 hrs by alamar blue assay. The series is classed as toxicity, cell-based. Particulars: dose 50-100 µM.
Series [10] deals with HFF. The series can be described thus: Cytotoxicity against HFF cells assessed as reduction in cell viability at 50 to 100 uM incubated for 72 hrs by alamar blue assay. Particulars: human, dose 50-100 µM. It is filed as toxicity, cell-based.
For series [11], the system named is MCF7. The series can be described thus: Cytotoxicity against human MCF7 cells assessed as reduction in cell viability at 50 to 100 uM incubated for 72 hrs by alamar blue assay. The series is classed as toxicity, cell-based. Particulars: mcf7, 72 h, dose 50-100 µM.
For series [12], the system named is MDA-MB-231. The series can be described thus: Cytotoxicity against human MDA-MB-231 cells assessed as reduction in cell viability at 50 to 100 uM incubated for 72 hrs by alamar blue assay. The series is classed as toxicity, cell-based. Conditions: mda-mb-231, 72 h, dose 50-100 µM.
Series [13] can be described thus: Drug concentration in CD-1 mouse plasma at 30 mg/kg, ip measured at 6 hrs post injection. It is filed as ADME, organism-based.
The nature of series [14]: Half life in CD-1 mouse at 30 mg/kg, ip measured for 6 hrs. The series is classed as ADME, organism-based. Particulars: in vivo.
Series [15] can be described thus: Toxicity in CD-1 mouse assessed as drug tolerance at 30 mg/kg, ip measured for 6 hrs. The series is classed as organism-based. Conditions: in vivo.
In series [16] the target is KV channel (voltage-gated potassium channel family) (Homo sapiens, UniProt O43525+O43526+O95259+P16389+P17658+P22001+P22459+P22460+P48547+P51787+P56696+Q03721+Q09470+Q12809+Q14003+Q14721+Q16322+Q6PIU1+Q8NCM2+Q8TAE7+Q8TDN1+Q8TDN2+Q92953+Q96KK3+Q96L42+Q96PR1+Q96RP8+Q9BQ31+Q9H252+Q9H3M0+Q9NR82+Q9NS40+Q9NSA2+Q9NZV8+Q9UIX4+Q9UJ96+Q9UK17+Q9ULD8+Q9ULS6+Q9UQ05). The series can be described thus: Inhibition of KV channel (unknown origin) at 10 uM by antagonist ligand based assay relative to control. The series is classed as protein assay.

Series [17] deals with T1, 5-hydroxytryptamine receptor 2B (Homo sapiens, UniProt P41595). The series can be described thus: Inhibition of [3H]LSD binding to 5-HT2B receptor (unknown origin).
T1 sequence (P41595 whole entry): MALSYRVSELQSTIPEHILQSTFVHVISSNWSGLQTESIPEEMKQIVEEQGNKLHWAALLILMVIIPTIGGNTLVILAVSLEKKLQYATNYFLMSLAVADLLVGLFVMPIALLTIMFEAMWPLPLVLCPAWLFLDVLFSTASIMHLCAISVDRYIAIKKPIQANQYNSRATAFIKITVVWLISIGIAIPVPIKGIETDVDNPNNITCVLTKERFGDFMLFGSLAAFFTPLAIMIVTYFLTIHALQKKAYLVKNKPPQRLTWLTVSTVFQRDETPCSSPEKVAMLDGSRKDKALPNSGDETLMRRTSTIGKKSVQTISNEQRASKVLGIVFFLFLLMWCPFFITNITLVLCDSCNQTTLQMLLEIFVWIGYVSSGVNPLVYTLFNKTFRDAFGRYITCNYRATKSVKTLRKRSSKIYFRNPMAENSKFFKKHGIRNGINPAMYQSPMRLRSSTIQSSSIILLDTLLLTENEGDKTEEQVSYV
For series [18], the target named is T1, 5-hydroxytryptamine receptor 2B. Conditions: dose 32000.0 nM.
Description: Inhibition of [3H]LSD binding to 5-HT2B receptor (unknown origin) assessed as maximum inhibition at 32000 nM relative to control

Usually half-life stands for the time needed for the level to fall by half in the phase considered. Low values mean fast loss, high ones slow loss. Broadly, the inhibition is the relative decrease from the control value, in per cent. For orientation: Ki means a dissociation constant, usually derived from enzyme kinetics or from competition with a known ligand. For the compound `O=C(NCC(=O)N1CCCC1)Nc1ccc2cnccc2c1`, the Activity entry in series [1], in [2], in series [3], in series [4], in series [5] and in [6] was “Non-Toxic” throughout. Also, the Activity entry in series [7], in [8], in [9], in [10], in [11] and in series [12] was “Toxic” each time. Also, the Activity entry in series [15] is “Non-Toxic”. The compound further yielded a concentration at 6 h in series [13] of 208 nM. Also, the half-life in series [14] is ~1 h. In series [16], the inhibition at 10 µM is -12%. The Ki in [17] is > 15000 nM. The compound further showed an Imax in series [18] of 50%.

`Cn1ccc2cc3c(cc21)CCN3C(=O)Nc1cccnc1`: the Ki in [17] turned out to be 18.5 nM.
